Measured values published in patent US8183238B2, “Bicyclic and tricyclic compounds as KAT II inhibitors” (priority 2009, dated 2012).
Where a name gives a salt, the structure may show the parent alone.

These molecules were tested against human KAT II (hKAT II) enzyme (Homo sapiens, UniProt Q8N5Z0) (assay: KAT II Inhibition Spectra Assay). Conditions: Table 6; hKAT II, decrease in OD370, 37° C., 15-20 h; read-out: KATII IC50.
Assay type: biochemical
Method: Formation of kynurenic acid (KYNA) is indirectly assessed by a decrease in light absorbance at 370 nm (OD370) as the L-kynurenine (KYN) substrate is converted by the human KAT II (hKAT II) enzyme into KYNA. An inhibitor would therefore inhibit the decrease in OD370.
The protocol was performed by placing the following reagents into a Costar 384 well black plate (30 μL total assay volume/well): • 10 μL of 3× concentrated compound; • 10 μL of 3× concentrated substrate mix (BGG (Sigma G-5009); 3 mM L-Kynurenine in 150 mM Tris Acetate (Sigma K3750); 3 mM α-ketoglutaric acid in 150 mM Tris Acetate (Sigma K2010); and 210 μM pyridoxal 5-phosphate (PLP) in 150 mM Tris Acetate (Sigma 9255)); and • 10 μL of 3× concentrated enzyme (15 nM enzyme in 150 mM Tris Acetate with 0.3% bovine serum).
Plates were sealed and incubated at 37° C. for 15-20 h before reading OD370 on a SpectraMax Plus plate reader. IC50s were generated by comparing the efficacy of compounds across a concentration range to inhibit a reduction in the OD370 value relative to assay wells with DMSO added in place of concentrated compound.

Chain of human KAT II (hKAT II) enzyme (Q8N5Z0 30-425): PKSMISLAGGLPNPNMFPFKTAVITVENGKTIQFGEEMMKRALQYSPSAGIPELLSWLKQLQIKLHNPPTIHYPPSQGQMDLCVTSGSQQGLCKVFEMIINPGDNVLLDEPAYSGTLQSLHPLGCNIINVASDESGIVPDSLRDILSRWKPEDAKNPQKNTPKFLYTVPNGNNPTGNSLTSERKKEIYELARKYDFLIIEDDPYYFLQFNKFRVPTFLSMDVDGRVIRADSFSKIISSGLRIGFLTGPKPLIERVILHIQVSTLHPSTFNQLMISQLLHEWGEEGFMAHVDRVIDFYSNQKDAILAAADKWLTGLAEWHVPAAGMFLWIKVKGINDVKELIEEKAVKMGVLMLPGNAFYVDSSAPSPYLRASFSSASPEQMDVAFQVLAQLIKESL

| IC50 [nM] | SMILES |
| --- | --- |
| 56.7 | NC1Cc2cc(Oc3ccccc3F)ccc2N(O)C1=O (stereo not shown) [Example 107] |
| 70.1 | NC1Cc2cc(Oc3ccc(F)cc3)ccc2N(O)C1=O (stereo not shown) [Example 108] |
| 288 | N[C@H]1Cc2c(F)ccc(Cl)c2N(O)C1=O [Example 109] |
| 983 | CCc1cccc2c1N(O)C(=O)[C@@H](N)C2 [Example 110] |
| 45.2 | N[C@H]1Cc2c(ccc(Oc3ccccc3)c2F)N(O)C1=O [Example 111] |
| 49.3 | N[C@H]1Cc2cc(C3CCOCC3)ccc2N(O)C1=O [Example 112] |
| 301 | N[C@H]1Cc2cc(Cl)cc(Cl)c2N(O)C1=O [Example 113] |
| 37 | N[C@H]1Cc2c(ccc(F)c2F)N(O)C1=O [Example 114] |
| 52.7 | N[C@H]1Cc2cc(Cl)c(Cl)cc2N(O)C1=O [Example 115] |
| 51.9 | N[C@H]1Cc2c(ccc(C3CC3)c2F)N(O)C1=O [Example 116] |
| 53.7 | N[C@H]1Cc2c(ccc(Cl)c2F)N(O)C1=O [Example 117] |
| 1270 | COc1cccc2c1N(O)C(=O)C(N)C2 (stereo not shown) [Example 118] |
| 41.1 | N[C@H]1Cc2cccc(C(F)F)c2N(O)C1=O [Example 119] |
| 61.9 | N[C@H]1Cc2cc(F)cc(F)c2N(O)C1=O [Example 120] |
| 35.1 | N[C@H]1Cc2cc(Oc3ccc(Cl)cc3)cnc2N(O)C1=O [Example 124] |
| 17.2 | COc1cccc(Cc2cc3c(cc2OC)N(O)C(=O)[C@@H](N)C3)c1 [Example 125] |
| 30.9 | COc1cc2c(cc1Cc1cccc(C#N)c1)C[C@H](N)C(=O)N2O [Example 126] |
| 28.2 | N[C@H]1Cc2cc(Cc3ccccc3)cnc2N(O)C1=O [Example 127] |
| 25.5 | Cc1nc2c(cc1Cc1ccccc1)C[C@H](N)C(=O)N2O [Example 128] |
| 49.1 | N#Cc1cccc(Oc2cnc3c(c2)C[C@H](N)C(=O)N3O)c1 [Example 129] |
| 1570 | N[C@H]1Cc2ccncc2N(O)C1=O [Example 130] |
| 121 | N[C@H]1Cc2cc(-c3ccccc3OC(F)(F)F)ccc2N(O)C1=O [Example 132, (3S)-3-amino-1-hydroxy-6-[2-(trifluoromethoxy)phenyl]-3,4-dihydroquinolin-2(1H)-one, trifluoroacetate salt] |
| 76.1 | N[C@H]1Cc2cc(-c3c(F)cccc3F)ccc2N(O)C1=O [Example 148, (3S)-3-amino-6-(2,6-difluorophenyl)-1-hydroxy-3,4-dihydroquinolin-2(1H)-one, trifluoroacetate salt] |
| 86.7 | N[C@H]1Cc2cc(Oc3ccc(F)c(Cl)c3)ccc2N(O)C1=O [Example 156, (3S)-3-amino-6-(3-chloro-4-fluorophenoxy)-1-hydroxy-3,4-dihydroquinolin-2(1H)-one, trifluoroacetate salt] |
| 68.5 | N[C@H]1Cc2cc(Oc3cc(F)ccc3F)ccc2N(O)C1=O [Example 157, (3S)-3-amino-6-(2,5-difluorophenoxy)-1-hydroxy-3,4-dihydroquinolin-2(1H)-one, trifluoroacetate salt] |
| 126 | N[C@H]1Cc2cc(Oc3ccc(Cl)c(C(F)(F)F)c3)ccc2N(O)C1=O [Example 158, (3S)-3-amino-6-[4-chloro-3-(trifluoromethyl)phenoxy]-1-hydroxy-3,4-dihydroquinolin-2(1H)-one, trifluoroacetate salt] |

| SMILES | IC50 [nM] |
| --- | --- |
| N[C@H]1Cc2cc(-c3cccc(OC(F)(F)F)c3)ccc2N(O)C1=O [Example 131, (3S)-3-amino-1-hydroxy-6-[3-(trifluoromethoxy)phenyl]-3,4-dihydroquinolin-2(1H)-one, trifluoroacetate salt] | 246 |
| N[C@H]1Cc2cc(-c3cc(F)ccc3F)ccc2N(O)C1=O [Example 133, (3S)-3-amino-6-(2,5-difluorophenyl)-1-hydroxy-3,4-dihydroquinolin-2(1H)-one, trifluoroacetate salt] | 86.6 |
| COc1ccc(-c2ccc3c(c2)C[C@H](N)C(=O)N3O)cc1C [Example 134, (3S)-3-amino-1-hydroxy-6-(4-methoxy-3-methylphenyl)-3,4-dihydroquinolin-2(1H)-one, trifluoroacetate salt] | 199 |
| Cc1ccccc1-c1ccc2c(c1)C[C@H](N)C(=O)N2O [Example 135, (3S)-3-amino-1-hydroxy-6-(2-methylphenyl)-3,4-dihydroquinolin-2(1H)-one, trifluoroacetate salt] | 116 |
| N[C@H]1Cc2cc(-c3ccccc3F)ccc2N(O)C1=O [Example 136, (3S)-3-amino-6-(2-fluorophenyl)-1-hydroxy-3,4-dihydroquinolin-2(1H)-one, trifluoroacetate salt] | 129 |
| COc1ccc(-c2ccc3c(c2)C[C@H](N)C(=O)N3O)c(C)c1 [Example 137, (3S)-3-amino-1-hydroxy-6-(4-methoxy-2-methylphenyl)-3,4-dihydroquinolin-2(1H)-one, trifluoroacetate salt] | 69 |
| N[C@H]1Cc2cc(-c3ccc4c(c3)CCO4)ccc2N(O)C1=O [Example 138, (3S)-3-amino-6-(2,3-dihydro-1-benzofuran-5-yl)-1-hydroxy-3,4-dihydroquinolin-2(1H)-one, trifluoroacetate salt] | 156 |
| N[C@H]1Cc2cc(-c3cccc(F)c3)ccc2N(O)C1=O [Example 139, (3S)-3-amino-6-(3-fluorophenyl)-1-hydroxy-3,4-dihydroquinolin-2(1H)-one, trifluoroacetate salt] | 66.1 |
| N[C@H]1Cc2cc(-c3ccc(Cl)cc3)ccc2N(O)C1=O [Example 140, (3S)-3-amino-6-(4-chlorophenyl)-1-hydroxy-3,4-dihydroquinolin-2(1H)-one, trifluoroacetate salt] | 252 |
| CCOc1ccccc1-c1ccc2c(c1)C[C@H](N)C(=O)N2O [Example 141, (3S)-3-amino-6-(2-ethoxyphenyl)-1-hydroxy-3,4-dihydroquinolin-2(1H)-one, trifluoroacetate salt] | 283 |
| N[C@H]1Cc2cc(-c3ccc(F)cc3)ccc2N(O)C1=O [Example 142, (3S)-3-amino-6-(4-fluorophenyl)-1-hydroxy-3,4-dihydroquinolin-2(1H)-one, trifluoroacetate salt] | 102 |
| N[C@H]1Cc2cc(-c3cccc(Cl)c3)ccc2N(O)C1=O [Example 143, (3S)-3-amino-6-(3-chlorophenyl)-1-hydroxy-3,4-dihydroquinolin-2(1H)-one, trifluoroacetate salt] | 96 |
| N[C@H]1Cc2cc(-c3cccc(C(F)(F)F)c3)ccc2N(O)C1=O [Example 144, (3S)-3-amino-1-hydroxy-6-[3-(trifluoromethyl)phenyl]-3,4-dihydroquinolin-2(1H)-one, trifluoroacetate salt] | 145 |
| N[C@H]1Cc2cc(-c3cccc(Cl)c3Cl)ccc2N(O)C1=O [Example 145, (3S)-3-amino-6-(2,3-dichlorophenyl)-1-hydroxy-3,4-dihydroquinolin-2(1H)-one, trifluoroacetate salt] | 179 |
| Cc1cccc(-c2ccc3c(c2)C[C@H](N)C(=O)N3O)c1 [Example 146, (3S)-3-amino-1-hydroxy-6-(3-methylphenyl)-3,4-dihydroquinolin-2(1H)-one, trifluoroacetate salt] | 78.6 |
| N[C@H]1Cc2cc(-c3ccc(F)cc3F)ccc2N(O)C1=O [Example 147, (3S)-3-amino-6-(2,4-difluorophenyl)-1-hydroxy-3,4-dihydroquinolin-2(1H)-one, trifluoroacetate salt] | 75.6 |
| CCc1ccccc1-c1ccc2c(c1)C[C@H](N)C(=O)N2O [Example 149, (3S)-3-amino-6-(2-ethylphenyl)-1-hydroxy-3,4-dihydroquinolin-2(1H)-one, trifluoroacetate salt] | 118 |
| N[C@H]1Cc2cc(-c3ccccc3)ccc2N(O)C1=O [Example 150, (3S)-3-amino-1-hydroxy-6-phenyl-3,4-dihydroquinolin-2(1H)-one, trifluoroacetate salt] | 96.7 |
| COc1ncccc1-c1ccc2c(c1)C[C@H](N)C(=O)N2O [Example 151, (3S)-3-amino-1-hydroxy-6-(2-methoxypyridin-3-yl)-3,4-dihydroquinolin-2(1H)-one, trifluoroacetate salt] | 63.6 |
| N[C@H]1Cc2cc(-c3cc(F)ccc3Cl)ccc2N(O)C1=O [Example 152, (3S)-3-amino-6-(2-chloro-5-fluorophenyl)-1-hydroxy-3,4-dihydroquinolin-2(1H)-one, trifluoroacetate salt] | 94 |
| COc1ccc(-c2ccc3c(c2)C[C@H](N)C(=O)N3O)cc1 [Example 153, (3S)-3-amino-1-hydroxy-6-(4-methoxyphenyl)-3,4-dihydroquinolin-2(1H)-one, trifluoroacetate salt] | 162 |
| N[C@H]1Cc2cc(-c3ccccc3Cl)ccc2N(O)C1=O [Example 154, (3S)-3-amino-6-(2-chlorophenyl)-1-hydroxy-3,4-dihydroquinolin-2(1H)-one, trifluoroacetate salt] | 96.5 |
| COc1cccc(-c2ccc3c(c2)C[C@H](N)C(=O)N3O)c1 [Example 155, (3S)-3-amino-1-hydroxy-6-(3-methoxyphenyl)-3,4-dihydroquinolin-2(1H)-one, trifluoroacetate salt] | 136 |
